Patent US20240182531A1, “KV1.3 Blockers” (priority 2021, published 2024)
Where a SMILES comes first, the peptide text is derived from it. Bridges are numbered along the chain shown (N, C = ends). [ ]: non-standard residue; d: D form. Nle = CCCC[C@H](N)C(=O)O; Abu = CC[C@H](N)C(=O)O

Legend:
human Kv1.6 = molecular target: T1, human Kv1.6 (Homo sapiens, UniProt P17658); experiment: cell-based; conditions: ratio of patch clamp IC50 values
T1 construct: expressed in transfected cells; host or cells: CHO
T1 sequence (P17658 whole entry): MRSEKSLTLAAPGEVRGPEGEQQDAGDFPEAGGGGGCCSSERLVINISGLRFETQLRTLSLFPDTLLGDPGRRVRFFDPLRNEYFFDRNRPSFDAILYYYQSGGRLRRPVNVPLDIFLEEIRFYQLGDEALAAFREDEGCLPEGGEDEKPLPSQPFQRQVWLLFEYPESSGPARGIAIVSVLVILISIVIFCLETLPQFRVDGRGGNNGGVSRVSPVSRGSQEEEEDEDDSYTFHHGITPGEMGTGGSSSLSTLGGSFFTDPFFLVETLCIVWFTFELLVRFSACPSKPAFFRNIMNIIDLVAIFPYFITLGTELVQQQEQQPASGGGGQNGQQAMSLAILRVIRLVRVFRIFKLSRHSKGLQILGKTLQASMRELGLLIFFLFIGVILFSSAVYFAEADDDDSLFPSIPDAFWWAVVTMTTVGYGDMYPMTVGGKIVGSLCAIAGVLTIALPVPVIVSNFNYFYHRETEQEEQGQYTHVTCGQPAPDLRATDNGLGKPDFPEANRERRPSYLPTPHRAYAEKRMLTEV

human Kv1.2 = molecular target: T2, human Kv1.2 (Homo sapiens, UniProt P16389); experiment: cell-based; conditions: ratio of patch clamp IC50 values
T2 construct: expressed in transfected cells; host or cells: CHO
T2 sequence (P16389 whole entry): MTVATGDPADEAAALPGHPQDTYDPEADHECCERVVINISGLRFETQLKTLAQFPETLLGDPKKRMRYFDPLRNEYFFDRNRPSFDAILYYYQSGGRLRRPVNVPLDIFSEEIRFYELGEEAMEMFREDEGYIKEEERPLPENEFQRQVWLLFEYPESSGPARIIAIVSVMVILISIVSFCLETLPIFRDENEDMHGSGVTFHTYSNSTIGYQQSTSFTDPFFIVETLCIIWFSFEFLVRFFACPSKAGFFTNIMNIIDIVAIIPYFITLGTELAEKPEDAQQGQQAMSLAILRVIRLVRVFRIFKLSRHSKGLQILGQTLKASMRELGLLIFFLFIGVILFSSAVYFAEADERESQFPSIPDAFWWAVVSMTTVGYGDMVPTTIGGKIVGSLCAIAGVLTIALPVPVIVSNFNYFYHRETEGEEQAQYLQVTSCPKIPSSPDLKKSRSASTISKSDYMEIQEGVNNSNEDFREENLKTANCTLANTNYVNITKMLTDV

human Kv1.1 = molecular target: T3, human Kv1.1 (Homo sapiens, UniProt Q09470); experiment: cell-based; conditions: ratio of patch clamp IC50 values
T3 construct: expressed in transfected cells; host or cells: CHO
T3 sequence (Q09470 whole entry): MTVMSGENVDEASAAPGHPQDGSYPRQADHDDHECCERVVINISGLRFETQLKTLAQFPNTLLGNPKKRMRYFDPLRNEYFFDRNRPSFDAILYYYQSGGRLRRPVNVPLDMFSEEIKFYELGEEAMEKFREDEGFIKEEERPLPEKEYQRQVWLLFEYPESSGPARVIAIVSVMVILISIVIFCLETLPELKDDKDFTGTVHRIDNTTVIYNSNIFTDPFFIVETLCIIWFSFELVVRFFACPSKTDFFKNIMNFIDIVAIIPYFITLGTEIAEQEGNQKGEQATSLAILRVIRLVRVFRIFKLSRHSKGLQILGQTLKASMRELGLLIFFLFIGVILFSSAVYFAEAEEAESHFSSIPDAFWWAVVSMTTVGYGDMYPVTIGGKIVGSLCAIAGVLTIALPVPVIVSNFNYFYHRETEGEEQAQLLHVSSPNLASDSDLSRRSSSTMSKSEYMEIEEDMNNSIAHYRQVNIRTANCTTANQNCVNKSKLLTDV

Rat whole blood = Rat whole blood (Rattus norvegicus, UniProt P15384); format: cell-based; conditions: IL-17A release, thapsigargin, 24 Hr, at least 2 replicates
Chain of Rat whole blood (P15384 whole entry): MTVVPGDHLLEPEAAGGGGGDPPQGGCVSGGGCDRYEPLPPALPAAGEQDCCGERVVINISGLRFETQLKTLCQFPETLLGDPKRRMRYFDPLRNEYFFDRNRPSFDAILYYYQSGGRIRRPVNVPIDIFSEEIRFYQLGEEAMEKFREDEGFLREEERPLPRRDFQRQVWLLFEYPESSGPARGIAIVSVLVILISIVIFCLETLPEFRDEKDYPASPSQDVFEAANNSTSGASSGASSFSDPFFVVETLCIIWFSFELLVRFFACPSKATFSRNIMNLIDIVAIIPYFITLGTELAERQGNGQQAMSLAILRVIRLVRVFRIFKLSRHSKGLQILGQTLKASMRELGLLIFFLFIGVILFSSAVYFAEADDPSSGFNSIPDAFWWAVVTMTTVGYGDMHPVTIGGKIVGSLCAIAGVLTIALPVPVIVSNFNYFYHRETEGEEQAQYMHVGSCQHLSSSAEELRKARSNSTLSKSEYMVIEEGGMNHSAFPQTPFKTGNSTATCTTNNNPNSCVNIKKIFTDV

| Molecule | Selectivity ratio Kv1.6/Kv1.3 (human Kv1.6) | Selectivity ratio Kv1.2/Kv1.3 (human Kv1.2) | Selectivity ratio Kv1.1/Kv1.3 (human Kv1.1) | IC50 (Rat whole blood) [nM] |
| --- | --- | --- | --- | --- |
| CC[C@H](C)[C@@H]1NC(=O)[C@H](C)NC(=O)[C@H](CCCCN)NC(=O)[C@H](CC(C)C)NC(=O)[C@@H]2CSSC[C@@H](C(=O)N[C@@H](Cc3ccc(O)cc3)C(=O)N3CCC[C@H]3C(=O)N[C@@H](CCCNC(=N)N)C(=O)O)NC(=O)[C@H](CCCCN)NC(=O)[C@@H]3CSSC[C@H](NC(=O)[C@H](CCC(=O)O)NC(=O)[C@H](C(C)C)NC(=O)[C@H](CO)NC(=O)[C@H](C)NC(=O)[C@H](CO)NC(=O)[C@@H](NC(=O)[C@H](CCCNC(=N)N)NC(=O)[C@H](CCSC)NC(=O)[C@H](CC(=O)O)NC(=O)[C@H](CCSC)NC(=O)[C@@H](N)CCC(N)=O)CSSC[C@H](NC(=O)[C@H](CCCCN)NC(=O)CNC(=O)[C@H](Cc4ccccc4)NC(=O)CNC(=O)[C@H](CCCNC(=N)N)NC(=O)CNC1=O)C(=O)N[C@@H](CCSC)C(=O)N[C@@H](CC(N)=O)C(=O)N[C@@H](CCCCN)C(=O)N[C@@H](CCCCN)C(=O)N3)C(=O)N[C@@H](CCCCN)C(=O)N[C@@H](CCC(N)=O)C(=O)N[C@@H](CCCCN)C(=O)N2 [compound 16] (H-QMDMRCSASVECKQKCLKAIGRGFGKCMNKKCKCYPR-OH; disulfide 6-27, 12-32, 16-34) | 1204 | 65 | >2000 | – |
| CC[C@H](C)[C@@H]1NC(=O)[C@H](C)NC(=O)[C@H](CCCCN)NC(=O)[C@H](CC(C)C)NC(=O)[C@@H]2CSSC[C@@H](C(=O)N[C@@H](Cc3ccc(O)cc3)C(=O)N3CCC[C@H]3C(=O)N[C@@H](CCCNC(=N)N)C(=O)O)NC(=O)[C@H](CCCCN)NC(=O)[C@@H]3CSSC[C@H](NC(=O)[C@H](CCC(=O)O)NC(=O)[C@H](C(C)C)NC(=O)[C@H](CO)NC(=O)[C@H](C)NC(=O)[C@H](CO)NC(=O)[C@@H](NC(=O)[C@H](CCCNC(=N)N)NC(=O)[C@H](CCSC)NC(=O)[C@H](CC(=O)O)NC(=O)[C@@H](NC(=O)[C@@H](N)CC(N)=O)[C@@H](C)CC)CSSC[C@H](NC(=O)[C@H](CCCCN)NC(=O)CNC(=O)[C@H](Cc4ccccc4)NC(=O)[C@H]([C@@H](C)CC)NC(=O)[C@H](CO)NC(=O)CNC1=O)C(=O)N[C@@H](CCSC)C(=O)N[C@@H](CC(N)=O)C(=O)N[C@@H](CCCCN)C(=O)N[C@@H](CCCCN)C(=O)N3)C(=O)N[C@@H](CCCCN)C(=O)N[C@@H](CCC(N)=O)C(=O)N[C@@H](CCCCN)C(=O)N2 [compound 19] (H-NIDMRCSASVECKQKCLKAIGSIFGKCMNKKCKCYPR-OH; disulfide 6-27, 12-32, 16-34) | >6800 | 857 | >6800 | – |
| CCCC[C@@H]1NC(=O)[C@@H]2CSSC[C@H](NC(=O)[C@H](CCCNC(=N)N)NC(=O)[C@H](CCCC)NC(=O)[C@H](CC(=O)O)NC(=O)[C@H](CCCC)NC(=O)[C@@H](N)CC(N)=O)C(=O)N[C@@H](CO)C(=O)N[C@@H](C)C(=O)N[C@@H](CO)C(=O)N[C@@H](C(C)C)C(=O)N[C@@H](CCC(=O)O)C(=O)N[C@H]3CSSC[C@H](NC(=O)[C@H](CCCCN)NC(=O)[C@H](CCCCN)NC(=O)[C@H](CC(N)=O)NC1=O)C(=O)N[C@@H](CCCCN)C(=O)N[C@H](C(=O)N[C@@H](Cc1ccc(O)cc1)C(=O)N1CCC[C@H]1C(=O)N[C@@H](CCCNC(=N)N)C(N)=O)CSSC[C@H](NC(=O)[C@H](CCCCN)NC(=O)[C@H](CCC(N)=O)NC(=O)[C@H](CCCCN)NC3=O)C(=O)N[C@@H](CC(C)C)C(=O)N[C@@H](CCCCN)C(=O)N[C@@H](C)C(=O)N[C@@H]([C@@H](C)CC)C(=O)NCC(=O)N[C@@H](CO)C(=O)N[C@@H]([C@@H](C)CC)C(=O)N[C@@H](Cc1ccccc1)C(=O)NCC(=O)N[C@@H](CCCCN)C(=O)N2 [compound 44] (H-N[Nle]D[Nle]RCSASVECKQKCLKAIGSIFGKC[Nle]NKKCKCYPR-NH2; disulfide 6-27, 12-32, 16-34) | 7073 | 436 | >11600 | – |
| H-N[Nle]D[Nle]RCSASVECQQKCLKAIGSIFGKC[Nle]NKKCKCYPR-NH2 (cysteine pairing not given here) [compound 48] | – | – | – | 1.1 |
| H-N[Nle]D[Nle]RCSASVECEQKCLKAIGSIFGKC[Nle]NKKCKCYPR-NH2 (cysteine pairing not given here) [compound 47] | – | – | – | 0.99 |
| H-S[Nle]D[Nle]RCSA[Abu]VECKQKCLKAIGSIFGKCMNKKCKCYPR-NH2 (cysteine pairing not given here) [compound 68] | – | – | – | 0.93 |
| CCCC[C@@H]1NC(=O)[C@@H]2CSSC[C@H](NC(=O)[C@H](CCCNC(=N)N)NC(=O)[C@H](CCCC)NC(=O)[C@H](CC(=O)O)NC(=O)[C@H](CCCC)NC(=O)[C@@H](N)CO)C(=O)N[C@@H](CO)C(=O)N[C@@H](C)C(=O)N[C@@H](CO)C(=O)N[C@@H](C(C)C)C(=O)N[C@@H](CCC(=O)O)C(=O)N[C@H]3CSSC[C@H](NC(=O)[C@H](CCCCN)NC(=O)[C@H](CCCCN)NC(=O)[C@H](CC(N)=O)NC1=O)C(=O)N[C@@H](CCCCN)C(=O)N[C@H](C(=O)N[C@@H](Cc1ccc(O)cc1)C(=O)N1CCC[C@H]1C(=O)N[C@@H](CCCNC(=N)N)C(N)=O)CSSC[C@H](NC(=O)[C@H](CCCCN)NC(=O)[C@H](CCC(N)=O)NC(=O)[C@H](CCCCN)NC3=O)C(=O)N[C@@H](CC(C)C)C(=O)N[C@@H](CCCCN)C(=O)N[C@@H](C)C(=O)N[C@@H]([C@@H](C)CC)C(=O)NCC(=O)N[C@@H](CO)C(=O)N[C@@H]([C@@H](C)CC)C(=O)N[C@@H](Cc1ccccc1)C(=O)NCC(=O)N[C@@H](CCCCN)C(=O)N2 [compound 66] (H-S[Nle]D[Nle]RCSASVECKQKCLKAIGSIFGKC[Nle]NKKCKCYPR-NH2; disulfide 6-27, 12-32, 16-34) | – | – | – | 0.47 |
| H-S[Nle]D[Nle]RCSASVECKQKCLKAIGSIFGKCMNKKCKC[F(4-F)]PR-NH2 [compound 87] | – | – | – | 0.34 |
| CCCC[C@@H]1NC(=O)[C@@H]2CSSC[C@H](NC(=O)[C@H](CCCNC(=N)N)NC(=O)[C@H](CCCC)NC(=O)[C@H](CC(=O)O)NC(=O)[C@H](CCCC)NC(=O)[C@@H](N)C(C)C)C(=O)N[C@@H](CO)C(=O)N[C@@H](C)C(=O)N[C@@H](CO)C(=O)N[C@@H](C(C)C)C(=O)N[C@@H](CCC(=O)O)C(=O)N[C@H]3CSSC[C@H](NC(=O)[C@H](CCCCN)NC(=O)[C@H](CCCCN)NC(=O)[C@H](CC(N)=O)NC1=O)C(=O)N[C@@H](CCCCN)C(=O)N[C@H](C(=O)N[C@@H](Cc1ccc(O)cc1)C(=O)N1CCC[C@H]1C(=O)N[C@@H](CCCNC(=N)N)C(N)=O)CSSC[C@H](NC(=O)[C@H](CCCCN)NC(=O)[C@H](CCC(N)=O)NC(=O)[C@H](CCCCN)NC3=O)C(=O)N[C@@H](CC(C)C)C(=O)N[C@@H](CCCCN)C(=O)N[C@@H](C)C(=O)N[C@@H]([C@@H](C)CC)C(=O)NCC(=O)N[C@@H](CO)C(=O)N[C@@H]([C@@H](C)CC)C(=O)N[C@@H](Cc1ccccc1)C(=O)NCC(=O)N[C@@H](CCCCN)C(=O)N2 [compound 67] (H-V[Nle]D[Nle]RCSASVECKQKCLKAIGSIFGKC[Nle]NKKCKCYPR-NH2; disulfide 6-27, 12-32, 16-34) | – | – | – | 0.98 |
| H-S[Nle]D[Nle]RCSASVECKQKCLAAIGCIFGKC[Nle]NKKCKCYPC-NH2 (cysteine pairing not given here) [compound 85] | – | – | – | 0.73 |
| H-CSASVECKQKCLKAIGCIFGKC[Nle]NKKCKCYPC-NH2 (cysteine pairing not given here) [compound 84] | – | – | – | 1.1 |
| NMDMRCSASVECKQKCLKAIHSIFGKCMNKKCKCYPR [compound 37] | – | – | – | 0.7 |
| H-S[Nle]D[Nle]RCSASVECK[2-Amino-5-carboxypentanoyl]KCLKAIGSIFGKCMNKKCKCYPR-NH2 [compound 73] | – | – | – | 0.52 |
